Test results reported in article PMC10403513, “Tasmanian devil cathelicidins exhibit anticancer activity against Devil Facial Tumour Disease (DFTD) cells” (Scientific Reports, 2023).
Like-named read-outs stand apart in the source and are kept apart here. No end group written: not given here.

Tests used:
DFT1 1426 cells [1] = assay type: cell-based, Tasmanian devil (Sarcophilus harrisii); conditions: for effect on cell viability (in words): 12-36 h; for decrease in cell viability compared to the growth control: alamarBlue, quadruplicate; for concentration toxic to DFT1 1426 cells: summary in the discussion
Experimental: The DFT1 cell line 1426, derived from a primary DFT1 tumour, was obtained from Menzies Institute for Medical Research, University of Tasmania. The cell line was maintained in RPMI 1640 media with 2 mM L-glutamine (Gibco) supplemented with 10% AmnioMax II (Gibco), 10% heat-inactivated foetal bovine serum (FBS) and 1% penicillin/streptomycin (Sigma-Aldrich), in T75 flasks (Nunc) at 35 °C 5% CO2. Cells were passaged using trypsin–EDTA (Sigma-Aldrich) when 90% confluent.
Toxicity of seven Tasmanian devil cathelicidins against DFT1 1426 cells was determined for twofold dilutions from 500 to 15.62 µg/mL, and four different timepoints (12, 18, 24 and 36 h). Confluent DFT1 1426 cells (passage 22) were re-suspended in RPMI 1640 with 10% FBS and 10% AmnioMax II at a concentration of 5 × 10^5 cells/mL, and 100μL seeded into each well of a sterile flat-bottom 96 well plate (Corning), with individual plates for each timepoint (12, 18, 24 and 36 h). All plates were incubated for 24 h at 35 °C 5% CO2 prior to the cytotoxicity test.
At 0 h, 100 μL of each peptide dilution was then added to each plate in quadruplicate for all timepoints (12, 18, 24 and 36 h), resulting in a final peptide concentrations of 500 μg/mL, 250 μg/mL, 125 μg/mL, 62.50 μg/mL, 31.25 μg/mL and 15.62 μg/mL. […] An untreated growth control of RPMI 1640, a positive control of dimethylsulfoxide (DMSO) (15%) and sterility control of RPMI 1640 only (no cells) were also included for each time point.
For the 12 h timepoint, 10% alamarBlue was immediately added to each well of the plate after addition of the peptide. For the remaining timepoints, plates were incubated for an additional 6, 12 or 24 h after addition of the peptides, then 10% alamarBlue added to each well. For all timepoints, after the addition of alamarBlue cells were incubated for a further 12 h, resulting in a total peptide incubation period of 12, 18, 24 and 36 h. Absorbance of alamarBlue for all timepoints was determined at 570 nm and 630 nm on a Biotek 800 TS microplate reader. Cell viability was calculated according to manufacturer’s instructions and expressed as a percentage of cell survival compared to the untreated growth control.
A one-sample, one-tailed t-test was used to test for significant difference in viability between treated cells and the negative growth control. A one sample, two-tailed t-test was also conducted to ensure there was no significant difference in viability between the negative growth control and the cells treated with the solvent only. Statistical analysis was conducted in R (R Development Core Team 2021).

DFT1 1426 cells [2] = assay: RNAseq differential gene expression in peptide-treated DFT1 1426 cells; assay type: cell-based, Tasmanian devil (Sarcophilus harrisii); conditions: 500 μg/mL, 10 h, n = 3, vs vehicle control; for percentage of DE genes: of 15,548 genes; for Fold change, gene E2F2: cyclin transcription factor; for Fold change, gene IL6: cytokine; for Fold change, gene MYD88: immune signaling; for Fold change, gene RUNX1: transcription factor
Experimental: RNAseq was used to characterize the mechanisms underlying the anticancer activity of the peptides. Confluent DFT1 1426 cells (passage number 25) were re-suspended at a concentration of 5 × 10^5 cells/ml and 1 mL seeded into each well of a sterile flat-bottom polystyrene 12-well plate (Corning). Following incubation for 24 h at 35 °C 5% CO2, media was aspirated from the cells and replaced with 500 μL of RPMI 1640 with 2 mM L-glutamine, 10% FBS and 10% AmnioMax II. 500 μL of each 1 mg/mL peptide solution (Saha-CATH1 to 7) was then added to the plate in triplicate, to give a final peptide concentration of 500 μg/mL. […] A vehicle control was also added to the plate in triplicate.
The plate was then incubated for a further 10 h at 35 °C in 5% CO2. This incubation period was selected as the cytotoxicity assay indicated it was sublethal for most of the peptides and would maintain sufficient cell viability to extract intact RNA. Media was then aspirated from the cells, which were washed twice with Dulbecco’s phosphate buffered saline (DPBS) (Sigma-Aldrich).
Total RNA was extracted from each replicate of the peptide-treated and vehicle control cells (n = 3) using the RNeasy mini kit (Qiagen) with cell lysis directly in each well of the 12 well plate. Total RNA was quality assessed using the RNA nano 6000 kit on the Agilent Bioanalyzer with all samples displaying a RIN score between 5 and 9. In total, 24 RNA samples corresponding to three treatments per peptide (Saha-CATH1 to 7) and a vehicle control were submitted to Ramaciotti Centre for Genomics (The University of New South Wales) for sequencing. Illumina TruSeq mRNA libraries were prepared for all samples, which were sequenced as 2 × 150 bp paired-end reads across an SP flowcell on the NovaSeq6000.
Raw reads were quality assessed using FastQC v0.11.8[47], then quality and length trimmed using Trimmomatic v0.39[48] using default parameters. Trimmed reads for each treatment (n = 3) and the control (n = 3) were aligned to the Tasmanian devil reference genome v7.0 (NCBI: GCA_000189315.1[49] using STAR v2.7.8a[50]. Alignments for each treatment were summarized into gene counts using featureCounts in the subread package v1.5.1[51].
Gene counts were used as input for differential expression analysis in R[52]. Genes with less than 50 counts across all samples were removed from the analysis, as these were unlikely to be biologically relevant and lacked sufficient statistical power. Firstly, the data was normalized by trimmed mean of M values (TMM) using edgeR v3.32.1[53] to account for any composition bias between libraries and to give an effective library size for downstream analysis. Multidimensional scaling (MDS) was used to check for variation between treatments using limma v3.36.0[54]. Expression levels were then normalized using upper-quartile normalization in EDAseq v2.24.0[55] to account for differences in distribution between lanes, such as sequencing depth. Differential expression analysis was performed using voom in the limma v3.36.0 package.
(§1) Over-representation analysis of Biological Processes was conducted in clusterProfiler v3.18.1[57]. Statistical significance was adjusted for multiple comparisons using the Benjamini–Hochberg method, and terms were considered significant when p-adj < 0.05. To remove general terms, gene sets larger than 200 were removed, and the simplify function was used to remove redundant GO terms. Further pathway analysis was conducted in IPA (Qiagen)[58], using mammal as the species type and nervous system for the tissue/cell type.

DFT1 1426 cells [3] = assay: Ingenuity Pathway Analysis (canonical pathways) of DE genes in treated DFT1 1426 cells; assay type: cell-based, Tasmanian devil (Sarcophilus harrisii); conditions: DE genes of cells treated with 500 μg/mL for 10 h
Experimental: as §1

human cell line A549 = conditions: cited from earlier work
Experimental: Here we aimed to identify cathelicidin candidates for future development as anti-DFTD therapeutics. Four Tasmanian devil cathelicidins (Saha-CATH3, 4, 5 and 6) were toxic to DFT1 1426 cells at high concentrations: Saha-CATH3 at concentrations ≥ 62.5 µg/mL; Saha-CATH4 at 500 µg/mL; Saha-CATH5 at concentrations ≥ 125 µg/mL and Saha-CATH6 at concentrations ≥ 250 µg/mL. Previous studies have shown that two of these peptides (Saha-CATH3 and 4) are non-toxic to human cell line A549[44]. The other two (Saha-CATH5 and 6) reduced cell viability at high concentrations (500 µg/mL), resulting in 42% and 5 ...

human red blood cells = conditions: cited from earlier work
Text: Cathelicidins have been isolated from many vertebrate taxa[34]–[37]. However, they have undergone gene expansion in marsupials due to the need for additional protection of immunologically naïve young during development in the pouch. […] During development within the pouch, young are exposed to diverse microbial flora, some of which are pathogenic. This has likely encouraged the lineage-specific expansion of cathelicidins in marsupials, resulting in mult ...

[4] = 500 μg/mL, 36 h, DFT1 1426 cells
[5] = pre-replication complex, RNAseq

Sequence	effect on cell viability (in words) (DFT1 1426 cells [1]; 500 µg/mL, DFT1 1426 cells)	percentage of DE genes (DFT1 1426 cells [2])	decrease in cell viability compared to the growth control (DFT1 1426 cells [1]; [4])	concentration toxic to DFT1 1426 cells (DFT1 1426 cells [1])	Fold change, gene CCND3 (DFT1 1426 cells [2]; G1-S phase transition, RNAseq)	Fold change, gene CCNE1 (DFT1 1426 cells [2]; G1-S phase transition, RNAseq)	Fold change, gene CCNE2 (DFT1 1426 cells [2]; G1-S phase transition, RNAseq)	Fold change, gene E2F2 (DFT1 1426 cells [2]; RNAseq)	Fold change, gene IL6R (DFT1 1426 cells [2]; cytokine receptor, RNAseq)	Fold change, gene IL6 (DFT1 1426 cells [2]; RNAseq)	Fold change, gene MYD88 (DFT1 1426 cells [2]; RNAseq)	Fold change, gene RUNX1 (DFT1 1426 cells [2]; RNAseq)	IPA z-score, Cyclins and Cell Cycle Regulation (DFT1 1426 cells [3])	IPA z-score, Th17 activation pathway (DFT1 1426 cells [3])	toxicity to human cell line A549 (in words) (human cell line A549)	Fold change, gene CDC6 (DFT1 1426 cells [2]; [5])	Fold change, gene ORC1 (DFT1 1426 cells [2]; [5])	IPA z-score, cell cycle control of chromosomal replication (DFT1 1426 cells [3])	also measured
GIKHILFMAKTKLPRATCTAEIKENCDRKK [Saha-CATH1, Tasmanian devil cathelicidin mature peptide, synthesized by ChinaPeptides Co. Ltd to 95% purity]	did not reduce cell viability	less than 1%																	
KRMGIFHLFWAGLRKLGNLIKNKIQQGIENFLG [Saha-CATH3]		12.63%	more than 50%	≥ 62.5 µg/mL	0.62	0.57	0.61	0.48	2.88	4.38	2.64	2.71	-2.333	3.317	non-toxic				incubation period required before exhibiting a similar level of toxicity to Saha-CATH5 (DFT1 1426 cells [1]; 500 μg/mL, DFT1 1426 cells): 18 h; cytotoxic concentration (cell viability reduced by more than 50%) (DFT1 1426 cells [1]; 18 h): 62.5 to 250 µg/mL; Fold change, gene IL1R1 (DFT1 1426 cells [2]; cytokine receptor, RNAseq): 2.41; haemolysis of human red blood cells (in words) (human red blood cells): not haemolytic
TFKRKNGSRKNGHRPGGYSLIALGNKKVLKAPYMESI [Saha-CATH2, Tasmanian devil cathelicidin mature peptide, synthesized by ChinaPeptides Co. Ltd to 95% purity]	did not reduce cell viability	less than 1%																	
STILEDPGKIRERRDIGEEPIQKKQKMYRDQMQ [Saha-CATH7, Tasmanian devil cathelicidin mature peptide, synthesized by ChinaPeptides Co. Ltd to 95% purity]	did not reduce cell viability	less than 1%																	number of differentially expressed (DE) genes (DFT1 1426 cells [2]; out of a total of 15,548 genes): 0
KRIGLGGLIGRILDRLRRLG [Saha-CATH5]		74.05%	more than 50%	≥ 125 µg/mL		0.37	0.30									0.39	0.54	-3.780	cell viability (% of untreated growth control) (DFT1 1426 cells [1]; 500 µg/mL, after 18 h, mean of quadruplicate): 0%; cytotoxic concentration (cell viability reduced by more than 50%) (DFT1 1426 cells [1]; 36 h): ≥ 125 µg/mL; Fold change (FC), gene ERBB3 (DFT1 1426 cells [2]; RNAseq): 0.34; Fold change, gene CCND1 (DFT1 1426 cells [2]; G1-S phase transition, RNAseq): 0.52; Fold change, gene CDC45 (DFT1 1426 cells [2]; [5]): 0.42; IPA z-score, ERBB2-ERBB3 (DFT1 1426 cells [3]): -4.439; IPA z-score, ERBB4 signaling (DFT1 1426 cells [3]): -5.425; IPA z-score, ERBB signaling (DFT1 1426 cells [3]): -6.068; IPA z-score, Hippo signalling (DFT1 1426 cells [3]): 0.898; cell survival of human cell line A549 (human cell line A549; 500 µg/mL): 42%; concentration at which moderately haemolytic (human red blood cells; human red blood cells): above 250 μg/mL
KREDFLDQIIRDFRNFIYQKYRRLRDEFRKLRDILSG [Saha-CATH4, Tasmanian devil cathelicidin mature peptide, synthesized by ChinaPeptides Co. Ltd to 95% purity]		18.75%		500 µg/mL	0.35	0.44	0.31	0.28	5.25	3.73	4.15	2.43	-3.317	3.317	non-toxic	0.29	0.46	-3.638	Fold change, gene CDC7 (DFT1 1426 cells [2]; [5]): 0.38
